Each structure is given as a SMILES string.

In general, melting point refers to the temperature, or range, at which the solid turns liquid. `N#Cc1c(N)sc2c1CCCCC2` returned a melting point of 103 to 115 °C. In turn, `COCCC(=O)Nc1ccc(F)cc1C(=O)O` yielded a melting point of 110 to 112 °C. As for `O=C(O)c1cc(-c2cccc(Cl)c2)on1`, the melting point fell in the range of 175 to 177 °C. Take `BrCc1ccc2c(c1)COC2`: the melting point was 49 to 51 °C. Then `CC(Cl)C(=O)Nc1ccccc1Cl` (configuration not stated), with 63 to 65 °C; and `COc1cccc(-c2cc(N)n(CCO)n2)c1`, with 148 to 150 °C.

With `Cn1cc(Br)cc1C(=O)NC1CC1`, the melting point is 112 to 114 °C.

Regarding `COc1ccc(NC(=O)OCC(F)(F)F)cc1`, the melting point was 79 to 81 °C. `COc1cccc(C(N)=S)c1OC` had a melting point of 146 to 148 °C. In turn, `O=C(O)CCSc1ccc2c(c1)OCCCO2` gave a melting point of 63 to 65 °C. Compound `O=[N+]([O-])c1cc(S(=O)(=O)N2CCOCC2)ccc1O` showed a melting point of 217 to 219 °C. Take `N#CCC(=O)Nc1ccncc1`: the melting point lay in the range of 181 to 183 °C. With `NC(=O)c1cccc(N)n1`, the melting point is 141 to 143 °C. Consider `CCN1C(=O)NC(C)C1=O` (configuration not stated), for which the melting point is 51 to 53 °C.

`CC(=O)c1ccc(S(=O)(=O)Nc2ccc(C(=O)O)cc2)cc1` displayed a melting point of 152 to 154 °C.

`ClCc1csc(Cc2ccc(Cl)cc2)n1` returned a melting point of 68 to 70 °C. Then `CS(=O)(=O)c1cccc(C(N)c2ccc(Cl)cc2)c1` (configuration not stated), with 94 to 96 °C; and `CC(CC(N)=NO)NC(=O)OC(C)(C)C` (configuration not stated), with 96 to 98 °C; and `O=C(CCl)Nc1ccnn1Cc1ccccc1`, with 99 to 101 °C. Turning to `CC(C)(O)c1cnc(Cl)nc1`, the melting point is 98 to 100 °C. In turn, `COC(=O)c1ccc(F)c(N)c1` displayed a melting point of 67 to 69 °C.

`O=C(O)CCSCc1ccccn1`: the melting point lay within 74 to 76 °C.

`COc1ccc([N+](=O)[O-])cc1C(C)N` (configuration not stated) had a melting point of 62 to 64 °C. As for `O=[N+]([O-])c1cc(CCl)c2c(c1)COCO2`, the melting point was 94 to 96 °C. `Cc1ccc(-n2[nH]c(-c3ccco3)cc2=N)cc1` came in with a melting point of 93 to 95 °C. `CCc1cc(O)ncn1` displayed a melting point of 135 to 137 °C. `NS(=O)(=O)c1ccc(/C=C/C(=O)O)cc1` gave a melting point of 274 to 276 °C. For the compound `O=C(O)CSc1ccc(O)cc1`, the melting point fell in the range of 141 to 143 °C.

`COc1ccc(C(=O)C2CCOCC2)cc1` came in with a melting point of 103 to 105 °C.

As to `Cc1cc(-c2nnc(CCl)o2)c(C)o1`, the melting point was in the range of 62 to 64 °C. Then `O=C(O)c1ccc(CN2C(=O)c3ccccc3C2=O)cc1`, with 258 to 260 °C; and `ClCc1ccc(-c2ccccc2)cc1`, with 71 to 73 °C; and `NNC(=O)Cc1ccc(Cl)cc1`, with 165 to 167 °C. For the compound `N#CC1(NC(=O)c2ccccc2)CCC1`, the melting point was 126 to 128 °C. Compound `CC(N)c1ccc2c(c1)CC(=O)N2C` (configuration not stated) showed a melting point of 101 to 103 °C. Then `Cc1nnc(NC(=O)OCC(F)(F)F)s1`, with 231 to 233 °C; and `Fc1ccccc1CNc1ccc(Cl)nn1`, with 169 to 171 °C. Then `O=C(CCl)c1ccc(I)cc1`, with 127 to 129 °C. As for `O=C(O)CCc1ccc(-c2ccccc2)[nH]1`, the melting point was 197 to 199 °C.

As to `Cc1ccc(S(=O)(=O)N2CCCCC2)cc1N`, the melting point lay in the range of 106 to 110 °C. `O=C(O)C=Cc1cc(Cl)ccc1OCc1ccccc1Br` displayed a melting point of 207 to 209 °C. Then `O=C(O)c1c[nH]cc1-c1cc(Cl)c2c(c1)OCCO2`, with 209 to 211 °C; and `Nc1nc(CN2CCNCC2)nc2ccccc12`, with 213 to 215 °C. As to `O=C(O)c1cncn1-c1ccccc1`, the melting point was 208 to 215 °C.

On to `Cn1ccc2cc[nH]c(=O)c21`, for which the melting point lay in the range of 190 to 192 °C. Compound `Cc1csc(CC(N)=NO)n1` showed a melting point of 126 to 128 °C. In turn, `CC(C)(O)c1ccc(Br)cc1` gave a melting point of 42 to 44 °C. For `COc1cccc(COc2cccc(Cl)c2C=O)c1`, the melting point lay in the range of 64 to 66 °C.

`O=C(O)C=Cc1cn(-c2ccccc2)nc1-c1cc2ccccc2o1` gave a melting point of 225 to 227 °C.

`O=C(O)CCNS(=O)(=O)c1ccc(OC(F)(F)F)cc1` had a melting point of 150 to 152 °C. `O=C(/C=C/c1ccc2c(c1)CCO2)N1CCCC(CO)C1` (configuration not stated) came in with a melting point of 131 to 133 °C. Then `O=C(O)C=Cc1cc(Cl)cc(Cl)c1`, with 130 to 134 °C; and `COc1ccc(C(N)=NO)cn1`, with 162 to 164 °C.

The compound `CC(=O)Nc1cccc2c1CCNC2` returned a melting point of 141 to 143 °C.

`Cn1c(=O)n(C)c2cc(Br)ccc21` gave a melting point of 163 to 165 °C. For `Nc1ccnn1C1CCCCC1`, the melting point lay in the range of 80 to 82 °C. In turn, `Cc1nn(C(C)(C)C)c2nc(C3CC3)cc(C(=O)O)c12` yielded a melting point of 172 to 174 °C.

As for `c1ccc(CC2CCN(c3ncnc4sccc34)CC2)cc1`, the melting point fell in the range of 124 to 126 °C. In turn, `CCOC(=O)c1ncoc1-c1ccco1` registered a melting point of 93 to 95 °C.

On to `Sc1nnc(-c2ccc(Cl)cc2)o1`, for which the melting point was 88 to 90 °C. Consider `Cc1ccccc1-c1csc(=O)[nH]1`, for which the melting point lay within 123 to 125 °C. Then `NCCC(=O)N1CCN(c2ncccn2)CC1`, with 87 to 89 °C; and `OCCc1cc2cc(Br)ccc2o1`, with 67 to 69 °C. `O=C(COc1ccccc1C(=O)O)Nc1cccc(C(F)(F)F)c1` had a melting point of 243 to 245 °C. `CC(C)(C)c1ccccc1S(=O)(=O)Cl`: the melting point lay in the range of 59 to 61 °C. The compound `C=Cc1nc(-c2cccc(Cl)c2)no1` displayed a melting point of 51 to 53 °C. `CCOC(=O)c1oc2ccc(Br)cc2c1CBr` came in with a melting point of 132 to 134 °C. `CCn1ccc(=O)nc1S` displayed a melting point of 242 to 244 °C. As for `O=Cc1c[nH]nc1-c1cccnc1`, the melting point lay in the range of 208 to 210 °C. In turn, `CCc1nc2cc(N)ccc2o1` gave a melting point of 69 to 71 °C. As for `CCOc1ccc2nc(-c3ccc(N)cc3)sc2c1`, the melting point is 203 to 205 °C.

Consider `CC(=O)NCc1cccc(C(=O)O)c1`, for which the melting point was 166 to 168 °C. With `O=C(O)/C=C/c1ccc(S(=O)(=O)NC2CC2)cc1` the figure was 263 to 265 °C; with `CCOC(C)c1ncc[nH]1` (configuration not stated), 69 to 71 °C. With `Cc1ccc(-c2cc(C(=O)O)n[nH]2)s1` the figure was 209 to 211 °C. Then `Brc1ccccc1Oc1ccncc1`, with 68 to 70 °C; and `COc1cccc(-n2nc(C)c(CCC(=O)O)c2C)c1`, with 104 to 115 °C. Take `c1ccc(-c2nnc3n2CCNC3)cc1`: the melting point was 159 to 161 °C. Compound `Cc1c(S(=O)(=O)Cl)cnn1-c1ccc(F)cc1` showed a melting point of 96 to 98 °C.

`CC(C)Cn1c(N)c(C=O)c(=O)n(C)c1=O` displayed a melting point of 192 to 194 °C. For `CC(N)(C(=O)O)c1cc(F)ccc1F` (configuration not stated), the melting point fell in the range of 301 to 303 °C. Compound `COC(=O)C1CNNC(=O)C1` (configuration not stated) showed a melting point of 119 to 121 °C. Regarding `COC(=O)C(=O)CC(=O)c1ccc(C)cc1`, the melting point was in the range of 86 to 88 °C. As for `O=C(O)c1ccc(NS(=O)(=O)C=Cc2ccccc2)cc1`, the melting point was in the range of 254 to 256 °C.

Take `O=C(O)/C=C/c1cccc(Cl)c1Cl`: the melting point was in the range of 233 to 235 °C. `O=c1[nH]c(S)nc2c1cnn2-c1ccccc1`: the melting point was 110 to 113 °C. With `CC(C)NC(=O)Nc1ccc(C#N)cc1`, the melting point was 193 to 195 °C.

The values above are taken from a melting point compilation (Tetko et al.).
